{
  "source": "paper PMC8364251",
  "about": "(Pharmacological Research, 2021)",
  "key": {"RBD-ACE2 binding": {"target": "RBD-ACE2 binding (Severe acute respiratory syndrome coronavirus 2, UniProt P0DTC2)", "assay": "ELISA ACE2:SARS-CoV-2 Spike inhibitor screening assay", "details": "25–200 μM compounds"}, "[1]": {"details": "200 and 300 mg/kg/day oral, 7 days"}, "human ACE2": {"target": "human ACE2 (Homo sapiens, UniProt Q9BYF1)", "sequence (Q9BYF1 18-805)": "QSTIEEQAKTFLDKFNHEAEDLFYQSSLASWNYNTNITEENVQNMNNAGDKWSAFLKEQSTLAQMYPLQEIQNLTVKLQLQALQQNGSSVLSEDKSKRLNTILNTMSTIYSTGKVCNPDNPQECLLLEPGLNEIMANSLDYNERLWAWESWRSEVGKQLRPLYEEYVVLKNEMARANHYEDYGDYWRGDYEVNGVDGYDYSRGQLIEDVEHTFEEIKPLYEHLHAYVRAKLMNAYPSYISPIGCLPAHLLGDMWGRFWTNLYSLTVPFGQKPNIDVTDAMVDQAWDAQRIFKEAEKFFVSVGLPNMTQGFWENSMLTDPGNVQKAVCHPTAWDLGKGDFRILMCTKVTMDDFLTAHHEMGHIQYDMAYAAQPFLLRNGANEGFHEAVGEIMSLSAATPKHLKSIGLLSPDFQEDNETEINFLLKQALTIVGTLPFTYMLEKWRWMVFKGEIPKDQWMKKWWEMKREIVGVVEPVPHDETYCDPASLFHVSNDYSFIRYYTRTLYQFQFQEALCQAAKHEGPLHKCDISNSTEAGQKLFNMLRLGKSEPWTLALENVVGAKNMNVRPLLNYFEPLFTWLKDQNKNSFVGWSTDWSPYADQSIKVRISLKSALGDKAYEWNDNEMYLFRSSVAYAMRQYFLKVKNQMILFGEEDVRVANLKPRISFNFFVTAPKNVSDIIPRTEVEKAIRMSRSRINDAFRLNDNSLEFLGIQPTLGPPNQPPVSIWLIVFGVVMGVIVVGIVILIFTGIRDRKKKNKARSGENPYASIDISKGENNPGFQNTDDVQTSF", "type": "binding"}, "zika virus": {"tested_on": "zika virus", "details": "cited from earlier work"}, "SARS-CoV-2 [2]": {"tested_on": "SARS-CoV-2", "assay": "Plaque formation assay", "details": "Vero E6"}, "H1N1 influenza virus": {"tested_on": "H1N1 influenza virus", "details": "cited from earlier work"}, "Ebola virus": {"tested_on": "Ebola virus", "details": "cited from earlier work"}, "HIV-1 protease": {"tested_on": "HIV-1 protease", "details": "cited from earlier work"}, "[3]": {"tested_on": "SARS-CoV-2-pseudotyped lentivirus", "type": "cell-based", "details": "concentrations up to 100 μM"}, "SARS-CoV-2 [4]": {"tested_on": "SARS-CoV-2", "assay": "Authentic SARS-CoV-2 CPE reduction assay in Vero E6 cells", "type": "cell-based"}, "authentic SARS-CoV-2": {"tested_on": "authentic SARS-CoV-2", "details": "cited from earlier work"}, "Spike-RBD protein": {"target": "Spike-RBD protein (Severe acute respiratory syndrome coronavirus 2, UniProt P0DTC2)", "type": "binding, SARS-CoV-2", "details": "BLI screening"}, "RBD": {"target": "RBD (Severe acute respiratory syndrome coronavirus 2, UniProt P0DTC2)", "details": "streptavidin probes; cited from earlier work"}, "HEK293": {"tested_on": "HEK293", "type": "cell-based, human", "details": "HEK293 cells"}},
  "note": "“Also recorded” adds a separate entry of the source.",
  "data": [
    {"compound": "bavachinin [Bvcn]", "values": [
      {"measurement": "activity in ELISA (inhibition of RBD-ACE2 binding)", "setting": "RBD-ACE2 binding", "result": "high activities"}
    ]},
    {"compound": "O=C(O[C@@H]1Cc2c(O)cc(O)cc2O[C@@H]1c1cc(O)c(O)c(O)c1)c1cc(O)c(O)c(O)c1", "note": "[EGCG, epigallocatechin gallate]", "values": [
      {"measurement": "activity in ELISA (inhibition of RBD-ACE2 binding)", "setting": "RBD-ACE2 binding", "result": "high activities"},
      {"measurement": "body weights", "setting": "[1]", "result": "no adverse effect"},
      {"measurement": "survival", "setting": "[1]", "result": "no adverse effect"},
      {"measurement": "organ weights", "setting": "[1]; liver, kidney, lung, spleen, thymus", "result": "no adverse effect"},
      {"measurement": "binding to ACE2 in BLI", "setting": "human ACE2", "result": "bound to ACE2 receptor"},
      {"measurement": "EC50", "setting": "zika virus", "result": 21.4, "unit": "µM"},
      {"measurement": "inhibition of plaque formation", "setting": "SARS-CoV-2 [2]", "result": "effective"},
      {"measurement": "EC50", "setting": "H1N1 influenza virus", "result": "22 to 28", "unit": "µM"},
      {"measurement": "EC50", "setting": "Ebola virus", "result": 50, "unit": "µM"},
      {"measurement": "IC50", "setting": "HIV-1 protease", "result": "50 to 100", "unit": "µM"},
      {"measurement": "inhibition of pseudovirus entry", "setting": "[3]", "result": "effectively inhibited pseudovirus entry"},
      {"measurement": "inhibition of SARS-CoV-2-induced cytopathic effect", "setting": "SARS-CoV-2 [4]", "result": "effective"}
    ]},
    {"compound": "CC(C)=CCc1cc2c(cc1O)O[C@H](c1ccc(O)cc1)CC2=O", "note": "[Bvc, bavachin]", "values": [
      {"measurement": "effect against authentic SARS-CoV-2", "setting": "authentic SARS-CoV-2", "result": "effective against authentic SARS-CoV-2"},
      {"measurement": "activity in ELISA (inhibition of RBD-ACE2 binding)", "setting": "RBD-ACE2 binding", "result": "high activities"}
    ]},
    {"compound": "O=C(/C=C/c1ccc(O)c(O)c1)OC[C@H]1O[C@@H](OCCc2ccc(O)c(O)c2)[C@H](O)[C@@H](O)[C@@H]1O", "note": "[CalB, calceolarioside B]", "values": [
      {"measurement": "activity in ELISA (inhibition of RBD-ACE2 binding)", "setting": "RBD-ACE2 binding", "result": "weakly active"}
    ]},
    {"compound": "C[C@H]1CC[C@@]2(OC1)O[C@H]1C[C@H]3[C@@H]4CC[C@@H]5C[C@@H](O[C@@H]6O[C@H](CO)[C@H](O)[C@H](O)[C@H]6O[C@@H]6O[C@H](CO)[C@@H](O)[C@H](O)[C@H]6O)CC[C@]5(C)[C@H]4CC[C@]3(C)[C@H]1[C@@H]2C", "note": "[TimA, timosaponin A III]", "values": [
      {"measurement": "activity in ELISA (inhibition of RBD-ACE2 binding)", "setting": "RBD-ACE2 binding", "result": "almost inactive"}
    ]},
    {"compound": "O=C(/C=C/c1ccc(O)c2oc(-c3ccc(O)c(O)c3)cc12)O[C@H](Cc1ccc(O)c(O)c1)C(=O)O", "note": "[SalC, Salvianolic acid C]", "values": [
      {"measurement": "Kd", "setting": "Spike-RBD protein", "result": 6.2, "unit": "µM"},
      {"measurement": "binding activity to RBD measured by BLI", "setting": "RBD", "result": "weak binding activity to RBD"}
    ]},
    {"compound": "COc1ccc2cc1Oc1ccc(cc1)C[C@H]1c3c(cc4c(c3Oc3cc5c(cc3OC)CCN(C)[C@@H]5C2)OCO4)CCN1C", "note": "[Ceph, cepharanthine]", "values": [
      {"measurement": "effect against authentic SARS-CoV-2", "setting": "authentic SARS-CoV-2", "result": "effective against authentic SARS-CoV-2"},
      {"measurement": "activity in ELISA (inhibition of RBD-ACE2 binding)", "setting": "RBD-ACE2 binding", "result": "almost inactive"}
    ]},
    {"compound": "COc1ccc(C[C@@H]2c3cc(Oc4cc(C[C@@H]5c6cc(O)c(OC)cc6CCN5C)ccc4O)c(OC)cc3CCN2C)cc1", "note": "[Isl, isoliensinine]", "values": [
      {"measurement": "effect against authentic SARS-CoV-2", "setting": "authentic SARS-CoV-2", "result": "effective against authentic SARS-CoV-2"},
      {"measurement": "activity in ELISA (inhibition of RBD-ACE2 binding)", "setting": "RBD-ACE2 binding", "result": "high activities"},
      {"measurement": "cytotoxicity", "setting": "HEK293", "result": "toxicity"},
      {"measurement": "inhibition of plaque formation", "setting": "SARS-CoV-2 [2]", "result": "inhibited plaque formation"}
    ]},
    {"compound": "C=C[C@@](C)(/C=C/c1ccc(O)cc1)CCC=C(C)C", "note": "[Bkc, bakuchiol]", "values": [
      {"measurement": "activity in ELISA (inhibition of RBD-ACE2 binding)", "setting": "RBD-ACE2 binding", "result": "weakly active; also recorded: lacked activity"},
      {"measurement": "binding to ACE2 in BLI", "setting": "human ACE2", "result": "bound to ACE2 receptor"},
      {"measurement": "inhibition of pseudovirus entry", "setting": "[3]", "result": "effectively inhibited pseudovirus entry"}
    ]},
    {"compound": "CC(C)=CCc1c(O)ccc(C(=O)/C=C/c2ccc(O)cc2)c1O", "note": "[Ibvc, isobavachalcone]", "values": [
      {"measurement": "activity in ELISA (inhibition of RBD-ACE2 binding)", "setting": "RBD-ACE2 binding", "result": "weakly active; also recorded: lacked activity"},
      {"measurement": "binding to ACE2 in BLI", "setting": "human ACE2", "result": "bound to ACE2 receptor"},
      {"measurement": "inhibition of plaque formation", "setting": "SARS-CoV-2 [2]", "result": "effective"},
      {"measurement": "inhibition of pseudovirus entry", "setting": "[3]", "result": "effectively inhibited pseudovirus entry"},
      {"measurement": "inhibition of SARS-CoV-2-induced cytopathic effect", "setting": "SARS-CoV-2 [4]", "result": "effective"}
    ]},
    {"compound": "O=C(/C=C/c1ccc(O)c(O)c1/C=C/c1ccc(O)c(O)c1)O[C@H](Cc1ccc(O)c(O)c1)C(=O)O", "note": "[SalA, salvianolic acid A]", "values": [
      {"measurement": "activity in ELISA (inhibition of RBD-ACE2 binding)", "setting": "RBD-ACE2 binding", "result": "high activities"},
      {"measurement": "inhibition of plaque formation", "setting": "SARS-CoV-2 [2]", "result": "effective"},
      {"measurement": "inhibition of pseudovirus entry", "setting": "[3]", "result": "weakly inhibited pseudovirus entry"},
      {"measurement": "inhibition of SARS-CoV-2-induced cytopathic effect", "setting": "SARS-CoV-2 [4]", "result": "effective"}
    ]}
  ]
}
